The values below come from paper PMC4113814, “Bioactive Cembrane Derivatives from the Indian Ocean Soft Coral, Sinularia kavarattiensis” (Marine Drugs, 2014).

Values after ≈ are worked out from the molar mass of the structure shown.

Data set [1] relates to CHIKV replicon. Description: microbe, parasite or virus in culture. To be noted: Chikungunya virus; for inhibition at 100 µM: 48 h, read-out: inhibition of the CHIKV replicon (Rluc marker levels). (A replicon is a self-replicating genome or part of one, used to study replication in cells.)
Data set [2] deals with CHIKV replicon. Briefly: CHIKV replicon assay, Cell-IQ live cell imaging, EGFP fluorescence intensity. Conditions: 48 h; for decrease in EGFP marker fluorescence intensity: 50 and 100 μM.
The test system of data set [3] is BHK-CHIKV-NCT cells. Briefly: Cell-IQ live cell imaging, cytotoxicity by cell classification (viable cells). Conditions: 48 h, control compounds.
Data set [4] relates to BHK-CHIKV-NCT cells. Briefly: Cytotoxicity assay by ATP quantitation (CellTiter GLO).
Data set [5] in a line: MTT cytotoxicity assay on primary microglial cell cultures. Conditions: Wistar, rat, mean of triplicate. The data set is classed as cell-based, Wistar rats. Here is the method:
(§1) Primary microglial cell cultures were prepared from brains of newborn Wistar rats. Ethics approval for the experiments was granted by the EBIOTEC Review Board (Valter Lombardi, Iván Carrera and Lucía Fernández-Novoa; Project Identification Code: Sinularia Project October 2013; approved 30 October 2013). The neocortex of one-day-old postnatal rats was aseptically dissected out, and the meninges and blood vessels were carefully removed. Following cutting in a medium containing 20% horse serum, the suspension was filtered through a […] and transferred as a single cell suspension to culture dishes, using 5.0 mL of medium per dish. The cultures were incubated at 37 °C in an atmosphere containing 5% CO2. The culture medium consisted of Minimum Essential Medium Eagle, supplemented with L-glutamine, amino acids, vitamins, penicillin, gentamicin, sodium bicarbonate and 20% heat-inactivated horse serum. The medium was changed twice a week. After 1 week, the concentration of horse serum was reduced to 10%. After sixteen days in culture, cells were treated with 1 μg/mL of lipopolysaccharide (LPS). After six hours, different concentrations (1.0 μg/mL, 2.5 μg/mL and 5.0 μg/mL) of Compounds 1–4 and 6 were added to each well, and plates were incubated for 72 h at 37 °C in an atmosphere containing 5% CO2. Positive controls were treated only with LPS, while negative controls were treated with complete medium. After 72 h of incubation, cells were counted, and 2.5 mL of the supernatants were collected from each well and frozen at −40 °C for cytokine analyses. All experiments were carried out twice.
(§2) The cytotoxicity of the compounds was measured by the colorimetric methyl thiazol tetrazolium (MTT) assay and scored as a percentage of the absorbance reduction of treated cultures versus untreated control cultures. Primary microglial cell cultures were seeded into 96-well microplates at 10^4 cells per well and allowed to grow for 24 h. The initial concentration of Compounds 1–4 and 6 was 100 μg/mL in DMSO. The compounds were serially diluted in complete culture medium with two-fold dilutions (100, 50, 25, 12.5, 6.25, 3.12 and 1.56 μg/mL for in vitro cytotoxicity; 12.5, 6.25, 3.12, 1.56, 0.78 and 0.39 μg/mL for cytokine release). Different concentrations of the compounds were added to each well, and Tamoxifen was used as a positive control, with concentrations ranging from 50 to 1.56 μg/mL. Plates were incubated at 37 °C for 72 h under 5% CO2 atmosphere. Then, the 50 μL of MTT-PBS solution in culture medium were added to each well. The plates were further incubated for 4 h under the same conditions. The medium was then removed and replaced with 200 μL of DMSO to solubilize the MTT formazan product. The solutions were shaken for 20 min, and the absorbance was measured at 570 nm. […] Each value represents the mean of triplicate determinations. The IC50 values were calculated from the compound concentration-response curves.
(In general: Formazan colour is commonly taken as a measure of viable cells.)

Data set [6] deals with IL-1β. Description: IL-1β release in supernatants of LPS-treated primary microglial cells (ELISA). The data set is classed as cell-based, Wistar rats. To be noted: 72 h; for IL-1β release: LPS-treated. Here is the method:
as §1, with “After six hours, different concentrations (1.0 μg/mL, 2.5 μg/mL and 5.0 μg/mL) of Compounds 1–4 and 6 were added to each well, and plates were incubated for 72 h at 37 °C in an atmosphere containing 5% CO2.” left out
(§3) The supernatants obtained from cell cultures were analyzed for TNF-α, IL-1β, IL-4, IL-6, IL-8, IL-10 and IL-18 using commercially available ELISA kits following the manufacturers’ instructions. All samples were assayed in duplicate, and equivocal results were repeated. The cytokine concentration was calculated from a standard curve of the corresponding recombinant cytokine.
as §2, with “The initial concentration of Compounds 1–4 and 6 was 100 μg/mL in DMSO.” left out
A general note: ELISA stands for enzyme-linked immunosorbent assay.

For data set [7], the system named is IL-10. Briefly: IL-10 release in supernatants of LPS-treated primary microglial cells (ELISA). Conditions: 72 h; for IL-10 release: LPS-treated. It is filed as cell-based, Wistar rats. Here is the method: as §1, with “After six hours, different concentrations (1.0 μg/mL, 2.5 μg/mL and 5.0 μg/mL) of Compounds 1–4 and 6 were added to each well, and plates were incubated for 72 h at 37 °C in an atmosphere containing 5% CO2.” left out
as §3
as §2, with “The initial concentration of Compounds 1–4 and 6 was 100 μg/mL in DMSO.” left out

Data set [8] relates to IL-18. Briefly: IL-18 release in supernatants of LPS-treated primary microglial cells (ELISA). Conditions: 72 h; for IL-18 release: LPS-treated. The data set is classed as cell-based, Wistar rats. Here is the method:
as §1, with “After six hours, different concentrations (1.0 μg/mL, 2.5 μg/mL and 5.0 μg/mL) of Compounds 1–4 and 6 were added to each well, and plates were incubated for 72 h at 37 °C in an atmosphere containing 5% CO2.” left out
as §3
as §2, with “[…] […]” for “The initial concentration of Compounds 1–4 and 6 was 100 μg/mL in DMSO. The compounds were serially diluted in complete culture medium with two-fold dilutions (100, 50, 25, 12.5, 6.25, 3.12 and 1.56 μg/mL for in vitro cytotoxicity; 12.5, 6.25, 3.12, 1.56, 0.78 and 0.39 μg/mL for cytokine release).”

Data set [9] relates to IL-8. Briefly: IL-8 release in supernatants of LPS-treated primary microglial cells (ELISA). To be noted: 72 h; for IL-8 release: LPS-treated. It is filed as cell-based, Wistar rats. Here is the method: as §1, with “After six hours, different concentrations (1.0 μg/mL, 2.5 μg/mL and 5.0 μg/mL) of Compounds 1–4 and 6 were added to each well, and plates were incubated for 72 h at 37 °C in an atmosphere containing 5% CO2.” left out
as §3
as §2, with “The initial concentration of Compounds 1–4 and 6 was 100 μg/mL in DMSO.” left out

For data set [10], the system named is IL-4. Description: IL-4 release in supernatants of LPS-treated primary microglial cells (ELISA). It is filed as cell-based, Wistar rats. Conditions: 72 h; for IL-4 release: LPS-treated. How it is done:
as §1, with “After six hours, different concentrations (1.0 μg/mL, 2.5 μg/mL and 5.0 μg/mL) of Compounds 1–4 and 6 were added to each well, and plates were incubated for 72 h at 37 °C in an atmosphere containing 5% CO2.” left out
as §3
as §2, with “[…] […]” for “The initial concentration of Compounds 1–4 and 6 was 100 μg/mL in DMSO. The compounds were serially diluted in complete culture medium with two-fold dilutions (100, 50, 25, 12.5, 6.25, 3.12 and 1.56 μg/mL for in vitro cytotoxicity; 12.5, 6.25, 3.12, 1.56, 0.78 and 0.39 μg/mL for cytokine release).”

For data set [11], the system named is TNF-α. Description: TNF-α release in supernatants of LPS-treated primary microglial cells (ELISA). The data set is classed as cell-based, Wistar rats. To be noted: 72 h; for TNF-α release: LPS-treated. How it is done: as §1, with “After six hours, different concentrations (1.0 μg/mL, 2.5 μg/mL and 5.0 μg/mL) of Compounds 1–4 and 6 were added to each well, and plates were incubated for 72 h at 37 °C in an atmosphere containing 5% CO2.” left out
as §3
as §2, with “The initial concentration of Compounds 1–4 and 6 was 100 μg/mL in DMSO.” left out

Data set [12] has as its system IL-6. Briefly: IL-6 release in supernatants of LPS-treated primary microglial cells (ELISA). The data set is classed as cell-based, Wistar rats. To be noted: 72 h; for IL-6 release: LPS-treated. Here is the method:
as §1, with “After six hours, different concentrations (1.0 μg/mL, 2.5 μg/mL and 5.0 μg/mL) of Compounds 1–4 and 6 were added to each well, and plates were incubated for 72 h at 37 °C in an atmosphere containing 5% CO2.” left out
as §3
as §2, with “The initial concentration of Compounds 1–4 and 6 was 100 μg/mL in DMSO.” left out

In general, inhibition refers to the relative decrease from the control value, in per cent. Turning to `C=C1/C=C/[C@H](C(C)C)CCC(=C)[C@H](O)CC1` [Compound 5, ent-germacra-4(15),5E,10(14)-trien-1β-ol], the inhibition at 100 µM in [1] fell in the range of 0.5 to 63%. In addition, in [2], the “decrease in EGFP marker fluorescence intensity” value is listed as “only moderate decreases”.
Consider `C=C(C)C1CC(=O)C2C3C(=O)CC(C=C3C(C)=O)C(C(=O)O)C2C1` (stereo not drawn) [Compound 7, kavaranolide], for which, in [1], the inhibition at 100 µM lay in the range of 0.5 to 63%. The “decrease in EGFP marker fluorescence intensity” value in data set [2] is listed as “only moderate decreases”.
The term IC50 denotes the concentration that gives 50% inhibition. With `O=c1cnn([C@@H]2O[C@H](CO)[C@@H](O)[C@H]2O)c(=O)[nH]1` [Compound 6-azauridine, 6-azauridine, reference compound], the IC50 in data set [1] (read-out: IC50, inhibition of replicon (Rluc detection)) amounted to 2000 nM. Also, in data set [1] (read-out: average inhibition (Rluc)), the inhibition at 10 µM came out at 69%. Also, the “effect of control compound on fluorescence intensity” value in [2] (control compounds) is on record as “decreases the fluorescence intensity”. Further, in data set [3], the “effect of control compound on number of viable cells / cell morphology” value is reported as “without affecting cell morphology”.
Compound polymyxin B [reference compound] yielded an average toxicity in data set [4] (10,000 IU/mL) of 93%. For the same compound, in data set [4] (positive control), the “ED50 for the cytotoxic activity” value is on record as 5900 IU/mL. For the same compound, in [3], the “effect of control compound on number of viable cells / cell morphology” value is on record as “radically decreases”.
Consider `CC/C(=C(\c1ccccc1)c1ccc(OCCN(C)C)cc1)c1ccccc1` [Tamoxifen, reference compound], for which, in [5], the IC50 at 72 h was 3.6 µg/mL (≈ 9.69 µM).
Consider `C=C(C)[C@@H]1C/C=C(\C(=O)OC)CC(=O)C[C@]2(C)CC(=O)[C@H](CC(=O)C1)O2` [Compound 4], for which the IL-1β release in data set [6] (C1: 1.0 μg/mL) is reported as 1.01 ± 0.04 pg/mL; in data set [6] (C2: 2.5 μg/mL), 1.02 ± 0.04 pg/mL; in data set [6] (C3: 5.0 μg/mL) it was 1.01 ± 0.02 pg/mL. Moreover, the IC50 in [6] (Rattus norvegicus, read-out: IL-1β IC50) was greater than 12.5 µg/mL; in data set [7] (Rattus norvegicus, read-out: IL-10 IC50), greater than 12.5 µg/mL; in [8] (Rattus norvegicus, read-out: IL-18 IC50) it was greater than 12.5 µg/mL; in data set [9] (Rattus norvegicus, read-out: IL-8 IC50), greater than 12.5 µg/mL; in data set [10] (Rattus norvegicus, read-out: IL-4 IC50) it was greater than 12.5 µg/mL; in data set [11] (Rattus norvegicus, read-out: TNF-α IC50) it was greater than 12.5 µg/mL. The IC50 in [12] (Rattus norvegicus, read-out: IL-6 IC50) is greater than 12.5 µg/mL. Also, the IL-10 release in [7] (C1: 1.0 μg/mL) was found to be 8.4 ± 2.6 pg/mL; in [7] (C2: 2.5 μg/mL), 7.9 ± 2.5 pg/mL; in data set [7] (C3: 5.0 μg/mL), 7.8 ± 3.2 pg/mL. Further, the IL-18 release in [8] (C2: 2.5 μg/mL) and in [8] (C3: 5.0 μg/mL) was 312 ± 8.2 pg/mL each time. Moreover, the IL-8 release in data set [9] (C2: 2.5 μg/mL) and in data set [9] (C3: 5.0 μg/mL) was 247 ± 8 pg/mL in each case. The same compound gave an IC50 at 72 h in data set [5] greater than 100 µg/mL. Moreover, the results for the IL-4 release in [10] (C1: 1.0 μg/mL), in data set [10] (C2: 2.5 μg/mL) and in data set [10] (C3: 5.0 μg/mL) were 2.2 ± 0.2 pg/mL, 2.3 ± 0.5 pg/mL and 1.8 ± 0.2 pg/mL, respectively. In addition, the TNF-α release stood at 33.2 ± 2.8 pg/mL in data set [11] (C1: 1.0 μg/mL), 29.8 ± 2.5 pg/mL in [11] (C2: 2.5 μg/mL) and 32.5 ± 3.7 pg/mL in [11] (C3: 5.0 μg/mL). In addition, the IL-6 release in [12] (C1: 1.0 μg/mL) is 12.1 ± 1.3 pg/mL; in data set [12] (C2: 2.5 μg/mL), 14.1 ± 1.1 pg/mL; in [12] (C3: 5.0 μg/mL), 12.1 ± 1.3 pg/mL.
